Format in all cases: cell-based
Data set [1] has as its system Escherichia coli (ATCC 25922). Nature of the data set: Antimicrobial activity (MBC), E. coli. Particulars: saline pH 7, 1 h at room temperature, 1.0×10^5 to 1.0×10^6 CFU/mL. As for the experimental part:
(§1) Antimicrobial activity of certain compounds of the present disclosure was tested against Escherichia coli (ATCC 25922), Staphylococcus aureus (ATCC 29213), and Candida albicans (ATCC 10231). The microbial cultures were diluted in sterile saline pH 7 to prepare inocula. Test compounds were titrated by stepwise two-fold dilutions in sterile saline pH 7. A total of 1.0×10^5 to 1.0×10^6 Colony Forming Units (CFU)/mL microbe was added to each tube, mixed by gentle vortexing, and then incubated at room temperature for 1 h. Microbial plating on Petri dishes (Tryptic Soy agar or Saboraud's Dextrose agar) was performed immediately after the designated exposure after neutralization of the test article dilutions in Dey-Engley Broth. Plates were incubated at 37° C., and the numbers of microbes were counted by direct colony count to quantitate the surviving microbes as CFU/mL. Positive growth controls were made with sterile 0.9% saline. Compounds were dissolved phosphate buffered saline (PBS) at pH 7 (using HCl and/or NaOH as needed). All compounds were tested three times.

The subject of data set [2] is Staphylococcus aureus (ATCC 29213). Nature of the data set: Antimicrobial activity (MBC), S. aureus. Particulars: saline pH 7, 1 h at room temperature, 1.0×10^5 to 1.0×10^6 CFU/mL. The method, then:
as §1

The subject of data set [3] is Candida albicans (ATCC 10231). Nature of the data set: Antimicrobial activity (MFC), C. albicans. Particulars: saline pH 7, 1 h at room temperature, 1.0×10^5 to 1.0×10^6 CFU/mL. As for the experimental part:
as §1

The next data set concerns L929 cells. Nature of the data set: Cytotoxicity CT50 in L929 cells.

Molecules are shown by their SMILES. In brackets after ≈: the same amount, converted by molar mass. Bounds are passed on as bounds.

In the case of `CC1(CCl)COC(=O)N1Cl` (stereo not shown) [Compound 36-01, 3-Chloro-4-(chloromethyl)-4-methyloxazolidin-2-one], in data set [1], the “MBC/MFC E. coli” value was 0.5 µg/mL (≈ 2.72 µM). For the same molecule, in data set [2], the “MBC/MFC S. aureus” value amounted to 0.5 µg/mL (≈ 2.72 µM). For the same molecule, the “MBC/MFC C. albicans” value in data set [3] is >128 µg/mL. For the same molecule, in the data set with L929 cells, the “CT50 L929 cells” value is on record as 0.09 mM.
For `CN1CC(C)(CCl)N(Cl)C1=O` (stereo not shown) [Compound 36-02, 3-Chloro-4-(chloromethyl)-1,4-dimethylimidazolidin-2-one], the “MBC/MFC E. coli” value in data set [1] is 8 µg/mL (≈ 40.6 µM). Besides, the “MBC/MFC S. aureus” value in data set [2] is 16 µg/mL (≈ 81.2 µM). For the same molecule, in data set [3], the “MBC/MFC C. albicans” value was found to be 512 µg/mL (≈ 2600 µM). Further, the “CT50 L929 cells” value in the data set on L929 cells came out at 0.04 mM.
For the molecule `CC1(CCl)CCC(=O)N1Cl` (stereo not shown) [Compound 36-03, 1-chloro-5-(chloromethyl)-5-methylpyrrolidin-2-one], the “MBC/MFC E. coli” value in data set [1] turned out to be 2 µg/mL (≈ 11 µM). In addition, the “MBC/MFC S. aureus” value in data set [2] amounted to 128 µg/mL (≈ 703 µM). In data set [3], the “MBC/MFC C. albicans” value is >512 µg/mL. Further, the “CT50 L929 cells” value with L929 cells was found to be 0.026 mM.
For `CC1(CBr)COC(=O)N1Cl` (stereo not shown) [Compound 36-05, 4-(bromomethyl)-3-chloro-4-methyloxazolidin-2-one], in data set [1], the “MBC/MFC E. coli” value turned out to be 1 µg/mL (≈ 4.38 µM). For the same molecule, the “MBC/MFC S. aureus” value in data set [2] is 0.5 µg/mL (≈ 2.19 µM). In data set [3], the “MBC/MFC C. albicans” value worked out at 64 µg/mL (≈ 280 µM). Moreover, in the data set with L929 cells, the “CT50 L929 cells” value stood at 0.1 mM.
Taken in the same sequence, the figures for `O=C1OCC(CCl)(CCl)N1Cl` [Compound 36-06, 3-chloro-4,4-bis(chloromethyl)oxazolidin-2-one] were 1 µg/mL (≈ 4.58 µM), 0.5 µg/mL (≈ 2.29 µM), 16 µg/mL (≈ 73.2 µM) and 0.4 mM.
Taken in the same sequence, the figures for `CC1(CF)COC(=O)N1Cl` (stereo not shown) [Compound 36-07, 3-chloro-4-(fluoromethyl)-4-methyl-oxazolidin-2-one] were 0.5 µg/mL (≈ 2.98 µM), 0.5 µg/mL (≈ 2.98 µM), 256 µg/mL (≈ 1530 µM) and 0.142 mM.
As for `CC1(CC(F)(F)F)COC(=O)N1Cl` (stereo not shown) [Compound 36-08, 3-chloro-4-(2,2,2-trifluoroethyl)-4-methyl-oxazolidin-2-one], the “MBC/MFC E. coli” value in data set [1] was found to be 4 µg/mL (≈ 18.4 µM). Moreover, the “MBC/MFC S. aureus” value in data set [2] is 1 µg/mL (≈ 4.6 µM). The “MBC/MFC C. albicans” value in data set [3] is 128 µg/mL (≈ 588 µM). Moreover, in the data set on L929 cells, the “CT50 L929 cells” value is 0.232 mM.

The values above are taken from patent US8729112B2, “Antimicrobial haloalkyl heterocycle compounds” (NovaBay Pharmaceuticals, Inc., priority 2011, dated 2014).
